Converted amounts (≈) assume the structure as drawn. “And” between values parts separate entries of the source, which are not always exact repeats. Equal entries are not always repeated. Where two headings read alike, the source gives them in different places.
Tests used:
[1] = biological target: ClpC1 NTD protein (M. tuberculosis) (Mycobacterium tuberculosis, UniProt P9WPC9); experiment: biochemical; type: binding
in vitro = settings: human
Method in brief: (§1)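 Permeability across Caco-2 monolayers was measured in both directions, apical-to-basolateral and basolateral-to-apical, in 10^-6 cm s-1. Efflux ratio = P(B−A)/P(A−B). Intrinsic permeability is the mean of P(A−B) and P(B−A).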

Caco-2 monolayers = experiment: in vitro; settings: human, Caco-2
Method in brief: as §1

[2] = type: in vitro ADME, Mice; settings: for Microsomal Stability Mice: clearance in microsomes
Method in brief: (§2)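 Compound at 1 µmol/l incubated with 0.5 mg/ml liver microsomes in 100 mM Tris-HCl pH 7.5, 6.5 mM MgCl2, 1 mM NADPH, 37 °C; acetonitrile-quenched at multiple time points, measured by HPLC-MS/MS. First-order half-lives converted to clearance as %Qh via well-stirred liver model.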

[3] = type: in vitro ADME, Rat; settings: for Microsomal Stability Rat: clearance in microsomes
Method in brief: as §2

[4] = Microsomal stability, human; type: in vitro ADME; settings: for Microsomal Stability Human: clearance in microsomes
Method in brief: as §2

[5] = Hepatocyte stability, mice; type: in vitro ADME; settings: mouse, pH 7.4
Method in brief: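 Clearance expressed as % of liver blood flow (% Qh), derived from half-life via the well-stirred liver model. Compound at 1 µM final was incubated up to 6 h with ~1 million cells/mL hepatocytes in 50% serum buffer, 37 °C, pH 7.4.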

[6] = type: in vitro ADME, Rat; settings: rat, pH 7.4
[7] = type: in vitro ADME, Human; settings: human, pH 7.4
[8] = system: M. tuberculosis H37Rv (ATCC 27294); experiment: microbe, parasite or virus in culture; type: cell-based
Msm 607 = experiment: microbe, parasite or virus in culture; type: cell-based
Msm 700084 = experiment: microbe, parasite or virus in culture; type: cell-based
[9] = biological target: His6-tagged ClpC1-NTD substrate, M. smegmatis ClpC1P1P2 (UniProt A0R574+P9WPC9); experiment: biochemical; type: biochemical
His6-tagged ClpC1-NTD substrate, M. smegmatis ClpC1P1P2, sequence (P9WPC9 1-156, looked up, natural form): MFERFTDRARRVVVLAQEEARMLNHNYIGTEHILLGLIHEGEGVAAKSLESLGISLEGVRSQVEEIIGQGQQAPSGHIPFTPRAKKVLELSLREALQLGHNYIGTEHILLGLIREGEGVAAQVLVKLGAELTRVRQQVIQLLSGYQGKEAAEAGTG
His6-tagged ClpC1-NTD substrate, M. smegmatis ClpC1P1P2, sequence (A0R574 whole entry): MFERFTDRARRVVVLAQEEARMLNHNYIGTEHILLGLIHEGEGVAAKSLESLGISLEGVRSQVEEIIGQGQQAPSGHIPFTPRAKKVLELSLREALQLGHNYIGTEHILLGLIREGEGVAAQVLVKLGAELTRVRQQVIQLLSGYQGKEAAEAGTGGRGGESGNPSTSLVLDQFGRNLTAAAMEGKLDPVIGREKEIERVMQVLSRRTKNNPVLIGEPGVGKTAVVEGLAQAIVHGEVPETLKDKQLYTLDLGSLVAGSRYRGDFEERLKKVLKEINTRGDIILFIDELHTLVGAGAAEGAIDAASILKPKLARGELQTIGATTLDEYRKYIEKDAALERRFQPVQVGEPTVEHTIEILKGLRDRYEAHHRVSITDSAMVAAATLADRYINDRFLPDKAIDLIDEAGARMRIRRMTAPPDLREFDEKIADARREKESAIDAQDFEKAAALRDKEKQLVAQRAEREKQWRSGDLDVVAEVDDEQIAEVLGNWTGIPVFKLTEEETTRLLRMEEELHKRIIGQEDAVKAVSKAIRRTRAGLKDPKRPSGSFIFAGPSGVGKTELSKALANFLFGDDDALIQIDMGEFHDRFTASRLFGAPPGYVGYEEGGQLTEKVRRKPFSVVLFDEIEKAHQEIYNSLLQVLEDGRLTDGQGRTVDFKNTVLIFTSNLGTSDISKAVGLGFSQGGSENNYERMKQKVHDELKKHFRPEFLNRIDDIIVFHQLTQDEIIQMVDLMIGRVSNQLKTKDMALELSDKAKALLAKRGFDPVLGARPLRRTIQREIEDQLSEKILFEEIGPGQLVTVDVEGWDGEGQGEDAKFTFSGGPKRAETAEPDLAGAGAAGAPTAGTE

[10] = biological target: ClpC1-NTD substrate, M. tuberculosis ClpC1P1P2 (Mycobacterium tuberculosis, UniProt P9WPC9); experiment: biochemical; type: biochemical
ClpC1-NTD substrate, M. tuberculosis ClpC1P1P2, sequence (P9WPC5 whole entry): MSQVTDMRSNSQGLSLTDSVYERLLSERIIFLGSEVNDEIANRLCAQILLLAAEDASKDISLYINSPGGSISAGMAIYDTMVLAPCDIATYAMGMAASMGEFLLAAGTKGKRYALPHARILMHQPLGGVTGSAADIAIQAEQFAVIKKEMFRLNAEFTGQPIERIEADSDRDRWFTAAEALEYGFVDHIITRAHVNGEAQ
ClpC1-NTD substrate, M. tuberculosis ClpC1P1P2, sequence (P9WPC9 whole entry): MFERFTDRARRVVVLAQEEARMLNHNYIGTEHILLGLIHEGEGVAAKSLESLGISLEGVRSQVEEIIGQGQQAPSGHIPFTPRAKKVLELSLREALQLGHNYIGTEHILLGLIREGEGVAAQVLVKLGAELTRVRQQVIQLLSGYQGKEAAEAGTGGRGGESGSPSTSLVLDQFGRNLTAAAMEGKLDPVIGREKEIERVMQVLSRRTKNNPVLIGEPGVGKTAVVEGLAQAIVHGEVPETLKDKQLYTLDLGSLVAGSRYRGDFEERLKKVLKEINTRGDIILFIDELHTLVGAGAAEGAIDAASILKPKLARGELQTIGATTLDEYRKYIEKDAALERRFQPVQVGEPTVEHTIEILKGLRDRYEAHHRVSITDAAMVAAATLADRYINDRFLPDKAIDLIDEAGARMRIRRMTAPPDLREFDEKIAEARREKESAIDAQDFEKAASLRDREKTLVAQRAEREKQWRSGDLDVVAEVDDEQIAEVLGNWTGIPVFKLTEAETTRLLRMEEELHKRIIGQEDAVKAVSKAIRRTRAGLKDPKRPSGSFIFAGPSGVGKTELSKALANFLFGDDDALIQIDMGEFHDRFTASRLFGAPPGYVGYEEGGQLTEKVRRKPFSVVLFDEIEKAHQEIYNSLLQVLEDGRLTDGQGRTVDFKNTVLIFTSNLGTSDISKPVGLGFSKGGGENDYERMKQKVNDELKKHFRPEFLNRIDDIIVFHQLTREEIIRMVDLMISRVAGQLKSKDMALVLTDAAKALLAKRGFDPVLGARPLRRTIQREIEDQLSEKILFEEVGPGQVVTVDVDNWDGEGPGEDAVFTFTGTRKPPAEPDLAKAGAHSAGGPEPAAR
ClpC1-NTD substrate, M. tuberculosis ClpC1P1P2, sequence (P9WPC3 whole entry, further chain): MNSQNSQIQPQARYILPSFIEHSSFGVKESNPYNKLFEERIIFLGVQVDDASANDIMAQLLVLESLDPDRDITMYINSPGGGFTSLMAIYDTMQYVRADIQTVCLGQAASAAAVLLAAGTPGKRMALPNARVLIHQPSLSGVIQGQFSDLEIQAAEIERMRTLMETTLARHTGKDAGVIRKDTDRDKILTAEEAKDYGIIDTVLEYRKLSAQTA

[11] = biological target: endogenous ClpC1 in Msm #607 cells (Mycolicibacterium smegmatis, UniProt A0R574); type: cell-based, M. smegmatis
endogenous ClpC1 in Msm #607 cells, sequence (A0R574 whole entry): as the sequence (A0R574 whole entry) above

[12] = SPR dissociation rate constant, read-out: koff ClpC1-NTD Mean ± SD
[13] = SPR, single independent measurements
[14] = SPR, single independent measurements, read-out: koff ClpC1-NTD
[15] = Caco-2, Caco-2 permeability P (A-B)
[16] = Mycobacterium tuberculosis, Mtb H37Rv (Supplementary Table 2), read-out: MIC Mtb
[17] = Mycobacterium tuberculosis, single determinations, read-out: Mtb MIC
[18] = Mycolicibacterium smegmatis, 607, read-out: MIC Msm 607
[19] = Mycolicibacterium smegmatis, 607, read-out: Msm 607 MIC, single determinations
[20] = Mycolicibacterium smegmatis, 700084, single determinations, read-out: Msm 700084 MIC
[21] = Mycolicibacterium smegmatis, 700084, read-out: MIC Msm 700084
[22] = Msm, Measurement 1-6, read-out: 1-Dmax, single measurements
[23] = Msm, mean of the measurements, read-out: 1-Dmax, Mean
[24] = Msm, mean of the measurements, read-out: DC50, Mean
[25] = Mtb, Measurement 1-4, read-out: 1-Dmax, single measurements
[26] = Mtb, mean of the measurements, read-out: 1-Dmax, Mean
[27] = Mtb, mean of the measurements, read-out: DC50, Mean
[28] = read-out: DC50, single measurements

ClpC1 NTD protein (M. tuberculosis), sequence (P9WPC9 1-156, looked up, natural form): as the sequence (P9WPC9 1-156, looked up, natural form) above

SMILES: CO[C@H](c1ccccc1)[C@@H]1NC(=O)[C@H](C)NC(=O)[C@H](C[C@@H](C)CO)N(C)C(=O)[C@H](Cc2cn(Cc3cn(CCOCCOCCOCCOCCn4cc(Cn5cc(C[C@H]6C(=O)N(C)[C@@H](C[C@@H](C)CO)C(=O)N[C@@H](C)C(=O)N[C@@H]([C@H](OC)c7ccccc7)C(=O)N[C@@H](C(C)C)C(=O)N(C)[C@@H](CC(C)C)C(=O)N[C@@H](C(C)C)C(=O)N6C)c6ccccc65)nn4)nn3)c3ccccc23)N(C)C(=O)[C@H](C(C)C)NC(=O)[C@H](CC(C)C)N(C)C(=O)[C@H](C(C)C)NC1=O [Compound 27]
- koff [1, 12]: 0.002 s⁻¹
- Kd ([1]; SPR, individual measurements (source data), read-out: KD ClpC1-NTD): 0.0003 µM and 0.000576 µM
- koff ClpC1-NTD [1, 13]: 2E-3 2E-3 1/s
- koff [1, 14]: 0.002 s⁻¹
- Kd ([1]; SPR, read-out: ClpC1-NTD KD Mean ± SD): 0.0004 ± 0.0002 µM
- Papp A→B (in vitro; [15]): < 6.4 ×10⁻⁶ cm/s
- Papp B→A (in vitro; Caco-2, Caco-2 permeability P (B-A)): < 1.7 ×10⁻⁶ cm/s
- Caco-2 Int. Perm (Caco-2 monolayers): 4.1
- Microsomal Stability Mouse QH [2]: 77.100%
- Microsomal Stability Mice [2]: 77 %Qh
- Microsomal Stability Rat QH [3]: 41.300%
- Microsomal Stability Rat [3]: 41 %Qh
- Microsomal Stability Human QH [4]: >88.400%
- Microsomal Stability Human [4]: > 88 %Qh
- Hepatocyte Mice [5]: 15 %Qh
- Hepatocyte Rat [6]: 6 %Qh
- Hepatocyte Stability Rat QH [6]: 6.192%
- Hepatocyte Human [7]: 12 %Qh
- Hepatocyte Stability Human QH [7]: 12.386%
- MIC ([8]; Mycobacterium tuberculosis, M. tuberculosis H37Rv strain, read-out: MIC Mtb H37Rv Mean ± SD): < 0.1 µM
- MIC [8, 16]: < 0.1 µM
- MIC ([8]; Mycobacterium tuberculosis, individual measurements (source data), read-out: Mtb MIC): < 0.1 µM
- MIC [8, 17]: < 0.1 µM
- MIC (Msm 607; [18]): 1.6 µM (≈ 3.52 µg/mL)
- MIC (Msm 607; [19]): 1.56 µM (≈ 3.43 µg/mL)
- MIC (Msm 700084; [20]): 0.78 µM (≈ 1.72 µg/mL)
- MIC (Msm 700084; [21]): 0.8 µM (≈ 1.76 µg/mL)
- 1-Dmax, single measurements ([9]; Msm, Measurement 1-6): 93.8% and 90.4%
- 1-Dmax (percent substrate remaining at maximal degradation) [9, 22]: 89.3%
- 1-Dmax (percent substrate remaining at maximal degradation) [9, 23]: 91%
- DC50 [9, 24]: 12.5 µM
- 1-Dmax, single measurements ([10]; Mtb, Measurement 1-4): 70.9% and 71.4% and 79.4%
- 1-Dmax (percent substrate remaining at maximal degradation) [10, 25]: 75.3%
- 1-Dmax (percent substrate remaining at maximal degradation) [10, 26]: 74%
- DC50 [10, 27]: 24.7 µM

SMILES: CO[C@@H](c1ccccc1)[C@H]1NC(=O)[C@@H](C)NC(=O)[C@@H](C[C@H](C)CO)N(C)C(=O)[C@@H](Cc2cn(C)c3ccccc23)NC(=O)[C@@H](Cc2cn(CCCCCn3cc(C[C@H]4NC(=O)[C@@H](CC(C)C)N(C)C(=O)[C@@H](C(C)C)NC(=O)[C@@H]([C@@H](OC)c5ccccc5)NC(=O)[C@@H](C)NC(=O)[C@@H](C[C@H](C)CO)N(C)C(=O)[C@@H](Cc5cn(C)c6ccccc56)NC4=O)nn3)nn2)NC(=O)[C@@H](CC(C)C)N(C)C(=O)[C@@H](C(C)C)NC1=O [Compound 12a]
- degradation of the His6-tagged ClpC1-NTD substrate [9]: did not cause any degradation
- DC50 ([9]; read-out: DC50, Mean): > 100 µM
- DC50 [9, 28]: > 100 µM
- DC50 ([10]; read-out: DC50, Mean): > 100 µM
- DC50 [10, 28]: > 100 µM
- intracellular degradation of ClpC1 [11]: inactive

SMILES: CO[C@H](c1ccccc1)[C@@H]1NC(=O)[C@H](C)NC(=O)[C@H](C[C@@H](C)CO)N(C)C(=O)[C@H](Cc2cn(Cc3cn(CCCCCn4cc(Cn5cc(C[C@@H]6NC(=O)[C@H](C(C)C)NC(=O)[C@H](CC(C)C)N(C)C(=O)[C@H](C(C)C)NC(=O)[C@H]([C@H](OC)c7ccccc7)NC(=O)[C@H](C)NC(=O)[C@H](C[C@@H](C)CO)N(C)C6=O)c6ccccc65)nn4)nn3)c3ccccc23)NC(=O)[C@H](C(C)C)NC(=O)[C@H](CC(C)C)N(C)C(=O)[C@H](C(C)C)NC1=O [Compound 9]
- Kd ([1]; SPR (Supplementary Table 1), read-out: KD ClpC1-NTD Mean ± SD): 0.0006 ± 0.0002 µM
- koff [1, 12]: 0.0005 s⁻¹
- koff ClpC1-NTD [1, 13]: 0.0005 s⁻¹ and 0.0006 s⁻¹
- Kd ([1]; SPR, single independent measurements, read-out: KD ClpC1-NTD): 0.000453 µM and 0.000515 µM and 0.000745 µM
- koff [1, 14]: 0.0005 s⁻¹
- Papp A→B (in vitro; Caco-2, CACO permeability PEAB): < 1.2 ×10⁻⁶ cm/s
- Papp B→A (in vitro; Caco-2, CACO permeability PEBA): < 0.28 ×10⁻⁶ cm/s
- Papp A→B (in vitro; [15]): < 0.2 ×10⁻⁶ cm/s
- Caco-2 Int. Perm (Caco-2 monolayers): 0.1
- Caco-2 permeability P (B-A) (Caco-2 monolayers): 0
- Microsomal Stability Mouse QH [2]: 24.7%
- Microsomal Stability Mice [2]: 25 %Qh
- Microsomal Stability Rat QH [3]: <23.100%
- Microsomal Stability Rat [3]: < 23 %Qh
- Microsomal Stability Human QH [4]: 43.3%
- Microsomal Stability Human [4]: 43 %Qh
- Hepatocyte Mice [5]: 15 %Qh
- Hepatocyte Stability Mouse QH [5]: 15.001%
- Hepatocyte Rat [6]: 6 %Qh
- Hepatocyte Stability Rat QH [6]: 6.192%
- Hepatocyte Human [7]: 12 %Qh
- Hepatocyte Stability Human QH [7]: 12.386%
- MIC [8, 16]: 0.3 ± 0.1 µM (≈ 0.611 µg/mL)
- MIC [8, 17]: 0.39 µM (≈ 0.794 µg/mL)
- MIC ([8]; single determinations, read-out: Mtb MIC): 0.195 µM (≈ 0.397 µg/mL)
- MIC (Msm 607; [18]): 0.8 µM (≈ 1.63 µg/mL)
- MIC (Msm 607; [19]): 0.78 µM (≈ 1.59 µg/mL)
- MIC (Msm 700084; [20]): > 50 µM
- MIC (Msm 700084; [21]): > 50 µM
- 1-Dmax, single measurements ([9]; Msm, Measurement 1-6): 54.4% and 51.4%
- 1-Dmax (percent substrate remaining at maximal degradation) [9, 22]: 54.7%
- DC50 ([9]; Msm, Measurement 1-6, read-out: DC50, single measurements): 7.8 µM and 9.2 µM and 6.9 µM
- 1-Dmax (percent substrate remaining at maximal degradation) [9, 23]: 54%
- DC50 [9, 24]: 8 µM
- 1-Dmax, single measurements ([10]; Mtb, Measurement 1-4): 29.9% and 20.5%
- 1-Dmax (percent substrate remaining at maximal degradation) [10, 25]: 27.5%
- DC50 ([10]; Mtb, Measurement 1-4, read-out: DC50, single measurements): 7.2 µM and 8.7 µM and 4.4 µM
- 1-Dmax (percent substrate remaining at maximal degradation) [10, 26]: 26%
- DC50 [10, 27]: 6.8 µM

Reference: paper PMC10914731, “Homo-BacPROTAC-induced degradation of ClpC1 as a strategy against drug-resistant mycobacteria” (Nature Communications, 2024)
